Source: patent US10071962B2, “Androgen receptor modulators and methods for their use” (British Columbia Cancer Agency Branch, priority 2014, dated 2018)

Target: T1, androgen receptor (AR) (Homo sapiens, UniProt P10275, T878A)
T1 construct: they express endogenous androgen receptor (AR) and secrete prostate-specific antigen (PSA); endogenous in cells; host or cells: LNCaP
T1 sequence (P10275 1-920 T878A): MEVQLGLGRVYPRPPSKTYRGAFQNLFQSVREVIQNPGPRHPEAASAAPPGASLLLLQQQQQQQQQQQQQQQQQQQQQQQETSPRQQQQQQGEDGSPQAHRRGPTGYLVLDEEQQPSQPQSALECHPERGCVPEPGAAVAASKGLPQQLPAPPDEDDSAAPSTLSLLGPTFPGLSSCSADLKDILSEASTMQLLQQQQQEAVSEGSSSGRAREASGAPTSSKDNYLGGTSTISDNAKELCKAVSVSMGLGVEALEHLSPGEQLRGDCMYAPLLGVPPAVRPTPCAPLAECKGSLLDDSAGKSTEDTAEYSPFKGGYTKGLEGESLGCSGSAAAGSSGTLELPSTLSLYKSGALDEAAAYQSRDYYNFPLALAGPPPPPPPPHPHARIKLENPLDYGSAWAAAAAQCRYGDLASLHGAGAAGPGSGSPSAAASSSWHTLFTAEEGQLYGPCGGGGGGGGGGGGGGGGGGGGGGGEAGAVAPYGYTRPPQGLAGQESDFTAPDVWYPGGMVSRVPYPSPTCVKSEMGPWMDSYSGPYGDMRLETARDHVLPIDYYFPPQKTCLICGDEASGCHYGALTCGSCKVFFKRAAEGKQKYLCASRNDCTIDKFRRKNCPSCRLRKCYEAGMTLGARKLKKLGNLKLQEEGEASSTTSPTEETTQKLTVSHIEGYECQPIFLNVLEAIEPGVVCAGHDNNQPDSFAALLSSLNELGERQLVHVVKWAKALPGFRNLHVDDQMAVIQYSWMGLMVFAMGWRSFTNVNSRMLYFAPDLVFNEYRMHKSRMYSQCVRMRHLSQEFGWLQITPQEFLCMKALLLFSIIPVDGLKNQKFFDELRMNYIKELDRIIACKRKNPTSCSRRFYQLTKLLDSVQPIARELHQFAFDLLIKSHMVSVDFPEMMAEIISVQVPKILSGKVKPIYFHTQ
Assay: PSA (6.1 kb)-luciferase reporter assay in LNCaP cells, R1881-induced AR transcriptional activity
Type: cell-based
Details: LNCaP cells transfected with PSA (6.1 kb)-luciferase; 1 h pre-treatment, R1881 1 nM, 48 h; various concentrations
Procedure: R1881 (a synthetic androgen) is employed since it is stable and avoids problems associated with the labile physiological ligand dihydrotestosterone (DHT).
LNCaP (2.4×10^4 cell/well) cells were seeded on 24-well plates overnight before transfection with PSA (6.1 kb)-luciferase plasmid (0.25 ug/well) in serum-free, red phenol-free media. The next day, cells were pre-treated with compounds of the invention for 1 hour before the addition of synthetic androgen, R1881 (1 nM) to transactivate androgen receptor (AR). After 48 h of incubation with R1881, the cells were harvested, and relative luciferase activity was determined as a read-out for androgen receptor (AR) transcriptional activity relative to a control. Test compounds were added to the cells at various concentrations and activity for each treatment was normalized to the predicted maximal activity induction (in the absence of test compounds, vehicle only). Transfection experiments were performed using triplicate wells.

Row | SMILES | luciferase activity relative to the control (read-out for AR transcriptional activity)
1 | CCC(=O)N[C@@H](CCC(Cl)(Cl)Cl)C(=O)N1C(=O)C=C(OC)[C@@H]1CCC(Cl)(Cl)Cl [Compound 1-1a] | decrease in luciferase activity relative to the control
2 | CCC(=O)N[C@@H](CCC(Cl)(Cl)Cl)C(=O)N1C(=O)C=C(OC)[C@H]1CCC(Cl)(Cl)Cl [Compound 1-1b] | decrease in luciferase activity relative to the control
3 | CCC(=O)N[C@H](CCC(Cl)(Cl)Cl)C(=O)N1C(=O)C=C(OC)[C@@H]1CCC(Cl)(Cl)Cl [Compound 1-1c] | decrease in luciferase activity relative to the control
4 | CCC(=O)N[C@H](CCC(Cl)(Cl)Cl)C(=O)N1C(=O)C=C(OC)[C@H]1CCC(Cl)(Cl)Cl [Compound 1-1d] | decrease in luciferase activity relative to the control
5 | C#CCCC(=O)N[C@H](CCC(Cl)(Cl)Cl)C(=O)N1C(=O)C=C(OC)[C@@H]1CCC(Cl)(Cl)Cl [Compound 1-2c] | decrease in luciferase activity relative to the control
6 | C#CCCC(=O)N[C@H](CCC(Cl)(Cl)Cl)C(=O)N1C(=O)C=C(OC)[C@H]1CCC(Cl)(Cl)Cl [Compound 1-2d] | decrease in luciferase activity relative to the control
7 | COC1=CC(=O)N(C(=O)[C@H](N)CCC(Cl)(Cl)Cl)[C@H]1CCC(Cl)(Cl)Cl [Compound 1-4c] | decrease in luciferase activity relative to the control
8 | COC1=CC(=O)N(C(=O)[C@H](N)CCC(Cl)(Cl)Cl)[C@@H]1CCC(Cl)(Cl)Cl [Compound 1-4d] | decrease in luciferase activity relative to the control
9 | CCS(=O)(=O)N[C@H](CCC(Cl)(Cl)Cl)C(=O)N1C(=O)C=C(OC)[C@H]1CCC(Cl)(Cl)Cl [Compound 1-6d] | decrease in luciferase activity relative to the control
10 | CCC(=O)N[C@H](CCC(Cl)(Cl)Cl)C(=O)N1C(=O)C=C(OC)[C@@H]1CC(C)C [Compound 1-7c] | decrease in luciferase activity relative to the control
11 | CCC(=O)N[C@H](CCC(Cl)(Cl)Cl)C(=O)N1C(=O)C=C(OC)[C@H]1CC(C)C [Compound 1-7d] | decrease in luciferase activity relative to the control
12 | CCC(=O)N[C@H](CC(C)C)C(=O)N1C(=O)C=C(OC)[C@@H]1CCC(Cl)(Cl)Cl [Compound 1-8c] | decrease in luciferase activity relative to the control
13 | CCC(=O)N[C@H](CC(C)C)C(=O)N1C(=O)C=C(OC)[C@H]1CCC(Cl)(Cl)Cl [Compound 1-8d] | slight increase in luciferase activity relative to the control
14 | C#CCCC(=O)N[C@H](CCC(Cl)(Cl)Cl)C(=O)N1C(=O)C=C(OC)[C@@H]1CC(C)C [Compound 1-9c] | decrease in luciferase activity relative to the control
